Laboratory results reported in PMC5384962, “First-in-human studies of seletalisib, an orally bioavailable small-molecule PI3Kδ inhibitor for the treatment of immune and inflammatory diseases” (European Journal of Clinical Pharmacology, 2017).

What was measured:
[1] = Study-1 Part-A safety/tolerability (adverse events), single doses; details: for Deaths: Study-1 Part-A
Method: Study-1 (Part-A), comprised single doses of seletalisib (1, 5, 10 and 15 mg) administered to healthy subjects using an alternating panel approach (Table 1). Panel 1 consisted of 17 subjects and panel 2 of 18 subjects. In each panel subjects were randomised to one of three sequences and received different ascending doses of seletalisib or placebo over three (panel 1) or two (panel 2) periods (Table 1). In the third period of panel 1, a preliminary assessment of food effect was made, all subjects received seletalisib 5 mg 30 min after a high-fat, high-calorie meal.
(§1) Adverse events (AEs), serious AEs (SAEs), routine clinical laboratory parameters, vital signs and ECGs were monitored throughout the study periods and for ≤7 days post-administration of final-dose of seletalisib/placebo. The potential for seletalisib to cause gastrointestinal (GI) tract adverse effects was assessed by careful monitoring of subject reports of AEs such as abdominal pain, bloating, nausea, vomiting and alteration of bowel function (e.g. diarrhoea, constipation or bleeding). A formal safety review was conducted before each dose escalation. In Study-1 (Part-B), the potential for seletalisib to interfere with insulin signalling was assessed by monitoring blood glucose and C-peptide levels as part of the standard laboratory tests and by performance of oral glucose tolerance tests, measuring glucose and C-peptide levels, pre-dose and during exposure in all cohorts.
(§2) In each study, the primary population for analysis was the full analysis set (FAS), which comprised all subjects who had received ≥1 dose of seletalisib or placebo. PK analysis was performed on the PK per-protocol set (PK-PPS), which was a subset of the FAS consisting of subjects with no important protocol deviations likely to affect PK variables who received seletalisib; subjects who received placebo were excluded from this analysis. In Study-1 and Study-2, sample sizes of 57 and 36 subjects, respectively, were considered sufficient to permit assessment of the safety and tolerability of seletalisib and were not based on statistical considerations of power and sample size. In Study-1 (Part-A), a panel size of 15 subjects was selected to achieve good estimates of the PK/PD parameters.

[2] = Study-2 safety/tolerability (adverse events)
Method: In total, 60 subjects were enrolled into five dose cohorts (n = 12 in each), and subjects were randomised (3:1) to receive seletalisib or placebo. Study-2 included initial dose cohorts of 30, 60 and 90 mg once-daily plus additional dose cohorts of 30 mg twice-daily and 45 mg once-daily.
as §1, §2

basophil degranulation [3] = assay: Study-1 ex vivo basophil degranulation (anti-IgE-driven CD63 expression, whole blood); assay type: in vivo, human; details: Study-1 Part-A, single doses; very high variability
Method: (§3) Subjects were assessed for basophil degranulation following stimulation at multiple time points, as described in Online Resource S1.
(§4) Degranulation of basophils was determined in whole blood by monitoring increased cell surface CD63 expression utilizing flow cytometry in an ex vivo stimulation assay driven by anti-IgE (Study-1) or anti-FcεR1 (Study-2). Briefly, blood was collected in lithium-heparin tubes (BD Biosciences, Oxford, UK) and stimulated with IgE or FcεRI cross-linking antibodies (eBiosciences, Hatfield, UK) for 12 min at 37°C. Following red blood cell lysis by addition of BD FACSlyse (BD Biosciences, Oxford, UK), samples were centrifuged and the supernatant discarded. The cell pellet was washed in PBS and re-suspended in fixative (5% formaldehyde in PBS). CD63 expression was determined on basophils (side-scatter low, CD123+HLA-DR-) and detected by flow cytometry using the BD antibody cocktail containing CD63, CD123, and anti-HLA-DR.

[4] = design: method as in ref 15 = [15]; 15. UCB data on file: UCB1446368-in vivo-rep; November 2011; UCB BioPharma sprl Belgium and DMPK10_062 UCB1446368 iv 1mpk male HW rat BDC; August 2010; UCB BioPharma sprl Belgium; details: preclinical animal studies; cited from earlier work
basophil degranulation [5] = assay: Study-2 ex vivo basophil degranulation (anti-FcεR1-driven CD63 expression, whole blood); details: Study-2, single dose, by 4 h post-dose on day 1, range across groups
Method: as §3, §4

[O-][n+]1cccc(-c2nc3c(Cl)cccc3cc2[C@@H](Nc2ncnc3cccnc23)C(F)(F)F)c1 [Seletalisib, seletalisib]
Deaths ([1]; seletalisib total): 0 n (%) | Deaths ([1]; single dose 1 mg): 0 n (%) | Deaths ([1]; single dose 5 mg): 0 n (%) | Deaths ([1]; single dose 5 mg fed): 0 n (%) | Deaths ([1]; single dose 10 mg): 0 n (%) | Deaths ([1]; single dose 15 mg): 0 n (%) | Any AE ([1]; human, in vivo): 13 (39.4) n (%) | Discontinuations due to AEs ([1]; human, in vivo): 0 n (%) | Drug-related AEs ([1]; human, in vivo): 2 (6.1) n (%) | Headache ([1]; human, in vivo): 4 (12.1) n (%) | Serious AEs ([1]; human, in vivo): 0 n (%) | Severe AEs ([1]; human, in vivo): 0 n (%) | number of moderate-intensity AEs ([1]; in vivo): three | Deaths ([2]; Study-2, 30 mg BID): 0 n (%) | Deaths ([2]; Study-2, 30 mg QD): 0 n (%) | Deaths ([2]; Study-2, 45 mg QD): 0 n (%) | Deaths ([2]; Study-2, 60 mg QD): 0 n (%) | Deaths ([2]; Study-2, 90 mg QD): 0 n (%) | Deaths ([2]; Study-2, seletalisib total): 0 n (%) | Any AE, number of events […] ([2]; human, in vivo): 169 | number of rash-related AEs ([2]; human, in vivo): 18 | number of subjects with AEs relating to GI disturbance ([2]; human, in vivo): 10 | number of subjects with rash-related AEs ([2]; human, in vivo): 12 | subjects who discontinued the study due to an AE ([2]; human, in vivo): 13.3% | subjects who experienced an AE ([2]; human, in vivo): 71.1% | subjects with SAEs ([2]; human, in vivo): 4.4% | subjects with headache ([2]; human, in vivo): 24.4% | subjects with rash ([2]; human, in vivo): 24.4% | Abdominal discomfort ([2]; human, in vivo, 14 days): 2 (4.4) n (%) | Abdominal pain ([2]; human, in vivo, 14 days): 5 (11.1) n (%) | Any AE ([2]; human, in vivo, 14 days): 32 (71.1) n (%) | Dermatitis, contact ([2]; human, in vivo, 14 days): 4 (8.9) n (%) | Diarrhoea ([2]; human, in vivo, 14 days): 3 (6.7) n (%) | Discontinuations due to AEs ([2]; human, in vivo, 14 days): 6 (13.3) n (%) | Discontinuations due to AEs, number of events […] ([2]; human, in vivo, 14 days): 6 | Dizziness ([2]; human, in vivo, 14 days): 5 (11.1) n (%) | Drug-related AEs ([2]; human, in vivo, 14 days): 24 (53.3) n (%) | Drug-related AEs, number of events […] ([2]; human, in vivo, 14 days): 136 | Dry mouth ([2]; human, in vivo, 14 days): 2 (4.4) n (%) | Dysgeusia ([2]; human, in vivo, 14 days): 5 (11.1) n (%) | Furuncle ([2]; human, in vivo, 14 days): 2 (4.4) n (%) | Headache ([2]; human, in vivo, 14 days): 11 (24.4) n (%) | Initial insomnia ([2]; human, in vivo, 14 days): 2 (4.4) n (%) | Nausea ([2]; human, in vivo, 14 days): 6 (13.3) n (%) | Oropharyngeal pain ([2]; human, in vivo, 14 days): 6 (13.3) n (%) | Rash ([2]; human, in vivo, 14 days): 11 (24.4) n (%) | Rash, generalised ([2]; human, in vivo, 14 days): 3 (6.7) n (%) | Regurgitation ([2]; human, in vivo, 14 days): 2 (4.4) n (%) | Serious AEs ([2]; human, in vivo, 14 days): 2 (4.4) n (%) | Serious AEs, number of events […] ([2]; human, in vivo, 14 days): 2 | Severe AEs ([2]; human, in vivo, 14 days): 3 (6.7) n (%) | Severe AEs, number of events […] ([2]; human, in vivo, 14 days): 3 | Somnolence ([2]; human, in vivo, 14 days): 2 (4.4) n (%) | Toothache ([2]; human, in vivo, 14 days): 2 (4.4) n (%) | Hypoaesthesia oral ([2]; human, in vivo, po, 14 days): 2 (4.4) n (%) | number of AEs relating to GI disturbance ([2]; in vivo): Thirty-two | number of infection-related AEs ([2]; in vivo): four | inhibition of basophil degranulation compared with placebo (basophil degranulation [3]): inhibition of basophil degranulation was observed in all seletalisib-treated groups | route of elimination [4]: primarily eliminated by combined hepatic metabolism and biliary excretion | inhibition of basophil degranulation (basophil degranulation [5]): 80.3–92.5%
